The kinase profiling compilation of Christmann-Franck et al. (2016)

What was measured:
Test in all cases: radiometric filter-binding kinase assay, Kinase HotSpot
Conditions in all cases: compound 0.5 µM; ATP 10 µM
TSSK2 (human) = TSSK2 (human) (UniProt Q96PF2)
EPHB1 (human) = EPHB1 (human) (UniProt P54762)
WNK2 (human) = WNK2 (human) (UniProt Q9Y3S1)
PAK1 (human) = PAK1 (human) (UniProt Q13153)
FES (human) = FES (human) (UniProt P07332)
CSNK1D (human) = CSNK1D (human) (UniProt P48730)
DYRK1A (human) = DYRK1A (human) (UniProt Q13627)
PRKD2 (human) = PRKD2 (human) (UniProt Q9BZL6)
PRKCI (human) = PRKCI (human) (UniProt P41743)
PBK (human) = PBK (human) (UniProt Q96KB5)
IKBKE (human) = IKBKE (human) (UniProt Q14164)
INSRR (human) = INSRR (human) (UniProt P14616)
SLK (human) = SLK (human) (UniProt Q9H2G2)
PHKG1 (human) = PHKG1 (human) (UniProt Q16816)
Chain of PHKG1 (human) (Q16816 whole entry, looked up): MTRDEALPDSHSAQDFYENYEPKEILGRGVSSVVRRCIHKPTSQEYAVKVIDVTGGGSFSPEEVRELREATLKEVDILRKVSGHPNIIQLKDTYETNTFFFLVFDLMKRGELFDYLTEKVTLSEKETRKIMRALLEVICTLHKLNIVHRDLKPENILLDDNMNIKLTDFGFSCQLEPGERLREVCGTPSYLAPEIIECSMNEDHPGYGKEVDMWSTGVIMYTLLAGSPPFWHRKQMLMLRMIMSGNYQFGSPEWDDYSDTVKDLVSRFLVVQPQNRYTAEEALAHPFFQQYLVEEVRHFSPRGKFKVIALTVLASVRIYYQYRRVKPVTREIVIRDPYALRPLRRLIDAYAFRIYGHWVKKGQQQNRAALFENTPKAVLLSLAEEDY

MATK (human) = MATK (human) (UniProt P42679)
NEK3 (human) = NEK3 (human) (UniProt P51956)
ABL2 (human) = ABL2 (human) (UniProt P42684)
ERBB2 (human) = ERBB2 (human) (UniProt P04626)
NEK1 (human) = NEK1 (human) (UniProt Q96PY6)
DYRK2 (human) = DYRK2 (human) (UniProt Q92630)
CHEK1 (human) = CHEK1 (human) (UniProt O14757)
PKN2 (human) = PKN2 (human) (UniProt Q16513)
EPHA8 (human) = EPHA8 (human) (UniProt P29322)
TEK (human) = TEK (human) (UniProt Q02763)
Chain of TEK (human) (Q02763 whole entry, looked up): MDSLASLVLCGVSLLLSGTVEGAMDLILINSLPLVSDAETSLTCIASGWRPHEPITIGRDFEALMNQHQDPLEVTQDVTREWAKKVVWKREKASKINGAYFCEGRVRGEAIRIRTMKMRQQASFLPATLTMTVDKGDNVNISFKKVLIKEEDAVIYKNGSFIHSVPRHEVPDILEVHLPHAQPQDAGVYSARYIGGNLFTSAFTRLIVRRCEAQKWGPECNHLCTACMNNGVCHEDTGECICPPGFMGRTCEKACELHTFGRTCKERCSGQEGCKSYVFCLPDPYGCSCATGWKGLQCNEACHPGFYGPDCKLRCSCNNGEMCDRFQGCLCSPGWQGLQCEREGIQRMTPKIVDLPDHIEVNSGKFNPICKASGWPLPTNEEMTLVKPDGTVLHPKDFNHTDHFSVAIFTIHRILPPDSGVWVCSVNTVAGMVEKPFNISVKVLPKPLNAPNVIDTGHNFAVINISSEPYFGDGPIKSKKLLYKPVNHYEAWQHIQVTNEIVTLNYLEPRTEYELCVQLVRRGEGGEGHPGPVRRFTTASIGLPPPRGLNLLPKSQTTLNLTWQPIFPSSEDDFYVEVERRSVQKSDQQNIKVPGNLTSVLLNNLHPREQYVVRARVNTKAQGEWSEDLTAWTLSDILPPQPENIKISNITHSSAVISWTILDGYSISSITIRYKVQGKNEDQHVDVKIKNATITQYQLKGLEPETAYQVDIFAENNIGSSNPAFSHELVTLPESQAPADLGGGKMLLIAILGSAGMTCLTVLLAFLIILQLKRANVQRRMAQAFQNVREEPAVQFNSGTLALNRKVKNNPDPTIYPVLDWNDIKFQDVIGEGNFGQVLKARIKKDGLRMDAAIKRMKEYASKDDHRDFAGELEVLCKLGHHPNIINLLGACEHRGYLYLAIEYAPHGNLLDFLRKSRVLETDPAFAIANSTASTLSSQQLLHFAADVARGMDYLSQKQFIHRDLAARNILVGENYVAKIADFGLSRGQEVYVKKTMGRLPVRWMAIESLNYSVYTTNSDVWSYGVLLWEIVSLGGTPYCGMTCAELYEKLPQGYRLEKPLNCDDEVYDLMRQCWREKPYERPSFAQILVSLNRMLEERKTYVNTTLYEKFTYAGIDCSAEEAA

MINK1 (human) = MINK1 (human) (UniProt Q8N4C8)
MAP3K10 (human) = MAP3K10 (human) (UniProt Q02779)
ACVR1 (human) = ACVR1 (human) (UniProt Q04771)
CSNK1G1 (human) = CSNK1G1 (human) (UniProt Q9HCP0)
Chain of CSNK1G1 (human) (Q9HCP0 whole entry, looked up): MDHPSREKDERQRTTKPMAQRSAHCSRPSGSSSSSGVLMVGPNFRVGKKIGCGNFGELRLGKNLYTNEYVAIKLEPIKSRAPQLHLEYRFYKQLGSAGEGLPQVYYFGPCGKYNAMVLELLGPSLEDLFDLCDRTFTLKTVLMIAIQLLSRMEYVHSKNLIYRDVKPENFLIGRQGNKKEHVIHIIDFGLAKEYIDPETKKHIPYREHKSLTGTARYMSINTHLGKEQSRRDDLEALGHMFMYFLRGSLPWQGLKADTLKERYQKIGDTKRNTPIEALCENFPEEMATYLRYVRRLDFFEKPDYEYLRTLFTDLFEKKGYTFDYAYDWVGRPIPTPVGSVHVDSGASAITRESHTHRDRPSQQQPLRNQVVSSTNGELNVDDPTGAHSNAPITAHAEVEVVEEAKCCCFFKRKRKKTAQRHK

CDK6 CCND3 (human) = CDK6 CCND3 (human) (UniProt P30281+Q00534)
BRSK2 (human) = BRSK2 (human) (UniProt Q8IWQ3)
Chain of BRSK2 (human) (Q8IWQ3 whole entry, looked up): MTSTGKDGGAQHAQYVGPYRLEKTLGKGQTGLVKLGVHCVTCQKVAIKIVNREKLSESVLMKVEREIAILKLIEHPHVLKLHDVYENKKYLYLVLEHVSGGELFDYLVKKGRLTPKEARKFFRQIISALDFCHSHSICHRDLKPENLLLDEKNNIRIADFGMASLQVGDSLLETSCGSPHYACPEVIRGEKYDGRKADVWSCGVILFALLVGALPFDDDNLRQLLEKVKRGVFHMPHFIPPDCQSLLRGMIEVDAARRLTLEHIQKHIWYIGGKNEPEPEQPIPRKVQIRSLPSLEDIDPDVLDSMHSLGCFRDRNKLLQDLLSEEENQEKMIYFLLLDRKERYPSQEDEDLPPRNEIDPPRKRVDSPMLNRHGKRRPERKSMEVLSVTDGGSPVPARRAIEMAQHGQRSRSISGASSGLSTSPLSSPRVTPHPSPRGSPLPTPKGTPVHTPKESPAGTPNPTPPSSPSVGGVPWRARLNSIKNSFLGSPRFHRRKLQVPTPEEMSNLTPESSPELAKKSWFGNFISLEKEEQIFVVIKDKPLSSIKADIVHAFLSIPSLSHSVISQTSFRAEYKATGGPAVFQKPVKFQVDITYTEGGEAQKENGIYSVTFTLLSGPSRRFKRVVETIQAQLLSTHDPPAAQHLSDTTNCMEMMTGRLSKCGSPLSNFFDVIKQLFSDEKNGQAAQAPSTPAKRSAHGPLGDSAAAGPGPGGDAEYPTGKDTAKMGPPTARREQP

MERTK (human) = MERTK (human) (UniProt Q12866)
Chain of MERTK (human) (Q12866 whole entry, looked up): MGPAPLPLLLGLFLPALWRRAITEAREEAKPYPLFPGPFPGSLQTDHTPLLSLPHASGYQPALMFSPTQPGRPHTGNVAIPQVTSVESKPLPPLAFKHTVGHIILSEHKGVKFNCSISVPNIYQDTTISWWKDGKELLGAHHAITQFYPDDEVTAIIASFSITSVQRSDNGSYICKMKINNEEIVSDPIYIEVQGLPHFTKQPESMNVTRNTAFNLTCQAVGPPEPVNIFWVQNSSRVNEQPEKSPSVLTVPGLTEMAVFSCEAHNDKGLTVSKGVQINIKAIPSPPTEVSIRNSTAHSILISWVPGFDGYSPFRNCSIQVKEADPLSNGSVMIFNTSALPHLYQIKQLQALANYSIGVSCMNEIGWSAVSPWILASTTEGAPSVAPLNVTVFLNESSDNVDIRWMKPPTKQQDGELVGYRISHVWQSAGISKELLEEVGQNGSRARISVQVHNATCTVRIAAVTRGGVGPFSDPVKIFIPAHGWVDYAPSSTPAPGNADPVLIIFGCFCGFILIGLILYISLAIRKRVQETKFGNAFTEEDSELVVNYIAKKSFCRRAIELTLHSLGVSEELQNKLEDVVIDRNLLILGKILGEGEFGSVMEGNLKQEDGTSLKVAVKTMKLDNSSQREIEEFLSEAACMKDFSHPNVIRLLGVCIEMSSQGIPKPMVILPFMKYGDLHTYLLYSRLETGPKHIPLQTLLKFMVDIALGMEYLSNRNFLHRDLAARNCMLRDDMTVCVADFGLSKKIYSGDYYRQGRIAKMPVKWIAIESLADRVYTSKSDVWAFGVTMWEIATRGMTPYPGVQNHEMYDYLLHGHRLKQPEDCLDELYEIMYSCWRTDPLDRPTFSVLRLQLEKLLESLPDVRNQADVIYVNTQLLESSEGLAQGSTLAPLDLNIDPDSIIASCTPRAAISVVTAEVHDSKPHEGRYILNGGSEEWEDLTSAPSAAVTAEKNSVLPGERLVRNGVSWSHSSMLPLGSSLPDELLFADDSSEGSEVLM

WEE1 (human) = WEE1 (human) (UniProt P30291)
Chain of WEE1 (human) (P30291 whole entry, looked up): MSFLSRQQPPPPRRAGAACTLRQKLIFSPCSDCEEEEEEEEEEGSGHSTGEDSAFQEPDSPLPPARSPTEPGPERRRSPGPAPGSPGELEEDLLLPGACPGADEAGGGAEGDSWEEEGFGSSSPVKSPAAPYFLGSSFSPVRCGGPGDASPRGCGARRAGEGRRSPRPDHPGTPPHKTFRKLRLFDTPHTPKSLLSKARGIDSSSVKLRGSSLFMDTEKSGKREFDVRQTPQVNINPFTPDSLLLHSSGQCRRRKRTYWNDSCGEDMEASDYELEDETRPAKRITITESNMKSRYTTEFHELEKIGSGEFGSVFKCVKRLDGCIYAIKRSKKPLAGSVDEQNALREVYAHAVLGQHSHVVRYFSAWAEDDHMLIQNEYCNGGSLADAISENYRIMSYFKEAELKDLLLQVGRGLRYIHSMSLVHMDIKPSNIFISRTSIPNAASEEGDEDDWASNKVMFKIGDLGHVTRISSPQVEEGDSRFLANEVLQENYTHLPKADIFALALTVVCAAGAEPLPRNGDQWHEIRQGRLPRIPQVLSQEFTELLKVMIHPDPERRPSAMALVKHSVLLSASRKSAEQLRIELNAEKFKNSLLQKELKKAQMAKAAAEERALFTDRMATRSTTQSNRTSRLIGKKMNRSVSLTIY

MAPK14 (human) = MAPK14 (human) (UniProt Q16539)
Chain of MAPK14 (human) (Q16539 whole entry, looked up): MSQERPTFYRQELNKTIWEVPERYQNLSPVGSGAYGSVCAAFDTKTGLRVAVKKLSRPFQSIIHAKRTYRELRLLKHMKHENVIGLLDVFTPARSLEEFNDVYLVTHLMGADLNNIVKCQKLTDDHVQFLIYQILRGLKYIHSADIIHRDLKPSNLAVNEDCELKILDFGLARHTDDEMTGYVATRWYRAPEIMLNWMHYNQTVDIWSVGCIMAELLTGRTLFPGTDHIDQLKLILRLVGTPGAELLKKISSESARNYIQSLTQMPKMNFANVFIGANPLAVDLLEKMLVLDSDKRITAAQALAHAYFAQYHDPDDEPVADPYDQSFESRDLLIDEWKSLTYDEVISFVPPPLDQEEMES

FLT1 (human) = FLT1 (human) (UniProt P17948)
MAP3K11 (human) = MAP3K11 (human) (UniProt Q16584)
ITK (human) = ITK (human) (UniProt Q08881)
HIPK3 (human) = HIPK3 (human) (UniProt Q9H422)
MARK4 (human) = MARK4 (human) (UniProt Q96L34)
STK25 (human) = STK25 (human) (UniProt O00506)
CDC42BPB (human) = CDC42BPB (human) (UniProt Q9Y5S2)
PRKD1 (human) = PRKD1 (human) (UniProt Q15139)
HIPK1 (human) = HIPK1 (human) (UniProt Q86Z02)

Chain of TSSK2 (human) (Q96PF2 whole entry, looked up): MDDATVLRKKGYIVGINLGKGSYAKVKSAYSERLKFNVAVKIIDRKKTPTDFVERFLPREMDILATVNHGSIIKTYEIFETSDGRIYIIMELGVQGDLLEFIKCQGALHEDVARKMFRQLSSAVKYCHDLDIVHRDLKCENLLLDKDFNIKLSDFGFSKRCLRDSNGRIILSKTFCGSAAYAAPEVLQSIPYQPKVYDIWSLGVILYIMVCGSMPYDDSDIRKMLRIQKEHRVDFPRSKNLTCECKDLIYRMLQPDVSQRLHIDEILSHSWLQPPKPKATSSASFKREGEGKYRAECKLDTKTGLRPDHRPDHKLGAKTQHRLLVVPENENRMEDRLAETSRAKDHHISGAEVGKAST

SMILES: Nc1nnc2[nH]c3ccccc3nc1-2
- residual activity (TSSK2 (human)): 110%
- residual activity (EPHB1 (human)): 92.3%
- residual activity (WNK2 (human)): 95.9%
- residual activity (PAK1 (human)): 97.1%
- residual activity (FES (human)): 96.8%
- residual activity (CSNK1D (human)): 94.2%
- residual activity (DYRK1A (human)): 95.1%
- residual activity (PRKD2 (human)): 94.5%
- residual activity (PRKCI (human)): 103%
- residual activity (PBK (human)): 106%
- residual activity (IKBKE (human)): 99.4%
- residual activity (INSRR (human)): 89.3%
- residual activity (SLK (human)): 92.5%
- residual activity (PHKG1 (human)): 86.9%
- residual activity (MATK (human)): 91.9%
- residual activity (NEK3 (human)): 94.9%
- residual activity (ABL2 (human)): 95.5%
- residual activity (ERBB2 (human)): 95.2%
- residual activity (NEK1 (human)): 91.7%
- residual activity (DYRK2 (human)): 91.6%
- residual activity (CHEK1 (human)): 187%
- residual activity (PKN2 (human)): 98.7%
- residual activity (EPHA8 (human)): 104%
- residual activity (TEK (human)): 97%
- residual activity (MINK1 (human)): 97.9%
- residual activity (MAP3K10 (human)): 93.1%
- residual activity (ACVR1 (human)): 94.3%
- residual activity (CSNK1G1 (human)): 99%
- residual activity (CDK6 CCND3 (human)): 105%
- residual activity (BRSK2 (human)): 96.5%
- residual activity (MERTK (human)): 92.9%
- residual activity (WEE1 (human)): 101%
- residual activity (MAPK14 (human)): 96.6%
- residual activity (FLT1 (human)): 92.1%
- residual activity (MAP3K11 (human)): 96.3%
- residual activity (ITK (human)): 101%
- residual activity (HIPK3 (human)): 97.4%
- residual activity (MARK4 (human)): 99.8%
- residual activity (STK25 (human)): 99.9%
- residual activity (CDC42BPB (human)): 100%
- residual activity (PRKD1 (human)): 94.9%

SMILES: CCn1cnc2c(Nc3cccc(Cl)c3)nc(N[C@@H]3CCCC[C@@H]3N)nc21
- residual activity (TSSK2 (human)): 109%
- residual activity (EPHB1 (human)): 56.6%
- residual activity (WNK2 (human)): 94.1%
- residual activity (PAK1 (human)): 88.8%
- residual activity (FES (human)): 83.5%
- residual activity (CSNK1D (human)): 97.8%
- residual activity (HIPK1 (human)): 97.5%
- residual activity (DYRK1A (human)): 100%
- residual activity (PRKCI (human)): 99.7%
- residual activity (PBK (human)): 105%
- residual activity (IKBKE (human)): 99.5%
- residual activity (INSRR (human)): 90.7%
- residual activity (SLK (human)): 71.4%
- residual activity (PHKG1 (human)): 62.8%
- residual activity (MATK (human)): 88.3%
- residual activity (NEK3 (human)): 100%
- residual activity (ABL2 (human)): 65.7%
- residual activity (ERBB2 (human)): 95.6%
- residual activity (NEK1 (human)): 95%
- residual activity (DYRK2 (human)): 107%
- residual activity (CHEK1 (human)): 85.8%
- residual activity (PKN2 (human)): 90.3%
- residual activity (EPHA8 (human)): 93%
- residual activity (TEK (human)): 99.9%
- residual activity (MINK1 (human)): 95.2%
- residual activity (MAP3K10 (human)): 92.9%
- residual activity (ACVR1 (human)): 92.7%
- residual activity (CSNK1G1 (human)): 56.8%
- residual activity (CDK6 CCND3 (human)): 76.9%
- residual activity (BRSK2 (human)): 94%
- residual activity (MERTK (human)): 76.2%
- residual activity (WEE1 (human)): 110%
- residual activity (MAPK14 (human)): 100%
- residual activity (FLT1 (human)): 92.8%
- residual activity (MAP3K11 (human)): 77.6%
- residual activity (ITK (human)): 105%
- residual activity (HIPK3 (human)): 102%
- residual activity (MARK4 (human)): 95.5%
- residual activity (STK25 (human)): 101%
- residual activity (CDC42BPB (human)): 97.7%
- residual activity (PRKD1 (human)): 90.8%

SMILES: O=C1Cc2c([nH]c3ccc(Br)cc23)-c2ccccc2N1
- residual activity (TSSK2 (human)): 99.3%
- residual activity (EPHB1 (human)): 93.5%
- residual activity (WNK2 (human)): 112%
- residual activity (PAK1 (human)): 85%
- residual activity (FES (human)): 87.8%
- residual activity (CSNK1D (human)): 104%
- residual activity (DYRK1A (human)): 98.8%
- residual activity (PRKD2 (human)): 100%
- residual activity (PRKCI (human)): 89.1%
- residual activity (PBK (human)): 99.3%
- residual activity (IKBKE (human)): 89.8%
- residual activity (INSRR (human)): 95.8%
- residual activity (SLK (human)): 95.7%
- residual activity (PHKG1 (human)): 49.7%
- residual activity (MATK (human)): 93.6%
- residual activity (NEK3 (human)): 96.2%
- residual activity (ABL2 (human)): 84.9%
- residual activity (ERBB2 (human)): 103%
- residual activity (NEK1 (human)): 95.4%
- residual activity (DYRK2 (human)): 107%
- residual activity (CHEK1 (human)): 89%
- residual activity (PKN2 (human)): 96.8%
- residual activity (EPHA8 (human)): 101%
- residual activity (TEK (human)): 106%
- residual activity (MINK1 (human)): 29.6%
- residual activity (MAP3K10 (human)): 79.3%
- residual activity (ACVR1 (human)): 162%
- residual activity (CSNK1G1 (human)): 102%
- residual activity (CDK6 CCND3 (human)): 94.4%
- residual activity (BRSK2 (human)): 62.7%
- residual activity (MERTK (human)): 89.5%
- residual activity (WEE1 (human)): 87.7%
- residual activity (MAPK14 (human)): 93%
- residual activity (FLT1 (human)): 78.9%
- residual activity (MAP3K11 (human)): 49.4%
- residual activity (ITK (human)): 102%
- residual activity (HIPK3 (human)): 109%
- residual activity (MARK4 (human)): 60.2%
- residual activity (STK25 (human)): 98.8%
- residual activity (CDC42BPB (human)): 95.9%
- residual activity (PRKD1 (human)): 101%
